Experimental data as given in publication PMC12693396, “Discovery of Influenza Neuraminidase Inhibitors: Structure-Based Virtual Screening and Biological Evaluation of Novel Chemotypes” (Molecules, 2025).
pIC50: −log10 of the molar value.

What was measured:
[1] = biological target: recombinant Influenza A H1N1 (A/California/04/2009) neuraminidase (Influenza A virus (A/California/04/2009(H1N1)), UniProt C3W5S3); experiment: Fluorometric MUNANA neuraminidase inhibition assay (NA-Fluor kit); format: biochemical
in vitro = settings: human

Structure (SMILES)	CC50 at 24 h (in vitro) [µM]	also measured
O=C(O)C1CCCN(C(=O)c2c[nH]c3ccccc23)C1 (stereo not shown) [Compound 1, 1-(1H-Indol-3-ylcarbonyl)-3-piperidinecarboxylic acid]	–	pIC50 [1]: < 3.00; inhibition at 100 µM ([1]; read-out: mean inhibition of NA activity, at 100 µM): > 15%
O=C(O)CCC(=O)c1c[nH]c2ccccc12 [Compound 3, γ-Oxo-1H-indole-3-butanoic acid]	671	–
COc1cccc2[nH]cc(C(=O)O)c12 [Compound 4, 4-Methoxy-1H-indole-3-carboxylic acid]	244	–
COc1ccc([C@H]2[C@@H](C(=O)O)c3ccccc3C(=O)N2Cc2ccc(Cl)cc2)cc1 [Compound 5, (3R,4S)-2-[(4-Chlorophenyl)methyl]-1,2,3,4-tetrahydro-3-(4-methoxyphenyl)-1-oxo-4-isoquinolinecarboxylic acid]	152	–
COc1cc2c(cc1OC)C(C(C)C)N(S(N)(=O)=O)CC2 (stereo not shown) [Compound 6, 3,4-Dihydro-6,7-dimethoxy-1-(1-methylethyl)-2(1H)-isoquinolinesulfonamide]	534	–
CCOC(=O)C1=C[C@@H](OC(CC)CC)[C@H](NC(C)=O)[C@@H](N)C1 [oseltamivir, Oseltamivir phosphate, reference compound]	–	inhibition of NA activity ([1]; 0.1 µM): approximately 20%
